The record followed here is patent US20090156598A1, “Imidazolopyrimidine modulators of TRPV1” (priority 2007, published 2009).

In general, IC50 refers to the concentration needed to halve the response being measured. High values mean lower potency, low ones higher potency.

For assay [1], the target named is T1, human TRPV1 (Homo sapiens, UniProt Q8NER1).
T1 construct: expressed in transfected cells; host or cells: HEK293 (hTRPV1/HEK293), zeocin selection
Put plainly: Functional assay: block of capsaicin-induced Ca2+ influx, human assay (FLIPR, hTRPV1/HEK293). The assay is classed as cell-based. The settings on record: hTRPV1/HEK293 cells, 150 nM capsaicin challenge, mean; > value = solubility limit in assay medium. The method, then: (§1) Functional assay: block of capsaicin-induced Ca^2+ influx
(§2) HEK293 cells were transfected with human TRPV1 cloned in pcDNA3.1zeo(+) using the Effectene non-liposomal lipid based transfection kit (Qiagen) (hTRPV1/HEK293). hTRPV1/HEK293 cells were routinely grown as monolayers under selection in zeocin (200 μg/mL; Invitrogen) in Dulbecco's Modified Eagle Medium (DMEM, Gibco BRL) supplemented with 10% fetal bovine serum, and penicillin/streptomycin (50 units/mL) in 5% CO2 at 37° C. Cells were passaged frequently, every 3-5 days, to avoid overgrowth, depletion of essential medium components, or acidic medium exposure. Cells were passaged using a brief wash in 0.05% trypsin with 1 mM EDTA, followed by dissociation in divalent-free phosphate-buffered saline (Hyclone #SH30028.02). Dissociated cells were seeded onto poly-D-lysine coated black-walled 96-well plates (Biocoat; Becton Dickinson #354640) at about 40,000 cells per well and grown for approximately 1 day in culture medium to near confluency. The assay buffer was composed of 130 mM NaCl, 2 mM KCl, 2 mM MgCl2, 10 mM HEPES, 5 mM glucose, and either 2 mM or 20 μM CaCl2. On the day of the experiment, the culture medium was replaced with 2 mM calcium assay buffer using an automated plate washer (EL×405; Biotek, VT). The cells were incubated in 100 μL/well Fluo-3/AM (2 μM; TEFLabs #0116) with Pluronic F127 (100 μg/mL; Sigma #P2443) for 1 h at rt in the dark. After loading the cells, the dye solution was replaced with 50 μL/well of 20 μM calcium assay buffer using the EL×405 plate washer. Test compounds (50 μL/well) were added to the plate and incubated for 30 min. Intracellular Ca^2+ levels were subsequently assayed using a Fluorometric Imaging Plate Reader (FLIPR™ instrument, Molecular Devices, CA) to simultaneously monitor Fluo-3 fluorescence in all wells (λexcitation=488 nm, λemission=540 nm) during challenge with agonist (capsaicin). The IC50 values were determined. Cells were challenged with 150 nM capsaicin and the fluorescence counts were captured following agonist addition at a sampling rate of 0.33 Hz. The contents of the wells were mixed 3 times (40 μL mix volume) immediately after the additions were made. Concentration-dependence of block was determined by exposing each well of cells in duplicate rows of a 96-well plate to a serial dilution of test compound. The concentration series usually started at 10 μM with a three-fold serial decrement in concentration. The magnitude of the capsaicin response was determined by measuring the change in fluo3 fluorescence before and 100 seconds after the addition of the agonist. Data were analyzed using a non-linear regression program (Origin; OriginLab, MA).
(§3) IC50 values shown are the average (mean) of the results obtained. Where activity is shown as greater than (>) a particular value, the value is the solubility limit of the compound in the assay medium.

Assay [2] deals with T2, rat TRPV1 (Rattus norvegicus, UniProt O35433).
T2 construct: expressed in transfected cells; host or cells: HEK293 (rTRPV1/HEK293), geneticin selection
The experiment in a line: Functional assay: block of capsaicin-induced Ca2+ influx, rat assay (FLIPR, rTRPV1/HEK293). It counts as cell-based. The settings on record: rTRPV1/HEK293 cells, capsaicin challenge, mean; > value = solubility limit in assay medium. The method, then:
as §1, §2
This assay was performed similarly to the human assay described above, but using HEK293 cells transfected with rat TRPV1 (rTRPV1/HEK293).
as §3

A value given as a limit tells only on which side of the number the result lay.

T2 sequence (O35433 whole entry): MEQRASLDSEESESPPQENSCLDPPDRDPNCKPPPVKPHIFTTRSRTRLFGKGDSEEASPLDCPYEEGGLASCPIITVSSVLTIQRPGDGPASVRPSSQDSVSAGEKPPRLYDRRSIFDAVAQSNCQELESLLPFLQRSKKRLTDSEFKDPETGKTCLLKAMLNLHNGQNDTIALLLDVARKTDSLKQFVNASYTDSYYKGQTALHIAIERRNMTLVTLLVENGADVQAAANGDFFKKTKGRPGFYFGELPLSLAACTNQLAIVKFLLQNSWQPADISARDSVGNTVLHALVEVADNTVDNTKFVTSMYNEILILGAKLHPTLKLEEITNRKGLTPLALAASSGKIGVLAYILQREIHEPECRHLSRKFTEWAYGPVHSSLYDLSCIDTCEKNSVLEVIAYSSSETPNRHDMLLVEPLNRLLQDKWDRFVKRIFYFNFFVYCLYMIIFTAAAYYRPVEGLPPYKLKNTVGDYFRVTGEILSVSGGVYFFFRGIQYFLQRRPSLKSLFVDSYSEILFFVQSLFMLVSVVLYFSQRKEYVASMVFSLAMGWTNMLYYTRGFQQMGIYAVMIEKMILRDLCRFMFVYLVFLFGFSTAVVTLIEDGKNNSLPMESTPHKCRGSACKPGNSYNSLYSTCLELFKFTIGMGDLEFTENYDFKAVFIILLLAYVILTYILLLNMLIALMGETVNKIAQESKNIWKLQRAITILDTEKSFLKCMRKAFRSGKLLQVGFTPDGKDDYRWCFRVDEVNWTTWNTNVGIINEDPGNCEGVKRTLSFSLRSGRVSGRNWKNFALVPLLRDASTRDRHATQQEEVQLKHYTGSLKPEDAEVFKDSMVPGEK
T1 sequence (Q8NER1 whole entry): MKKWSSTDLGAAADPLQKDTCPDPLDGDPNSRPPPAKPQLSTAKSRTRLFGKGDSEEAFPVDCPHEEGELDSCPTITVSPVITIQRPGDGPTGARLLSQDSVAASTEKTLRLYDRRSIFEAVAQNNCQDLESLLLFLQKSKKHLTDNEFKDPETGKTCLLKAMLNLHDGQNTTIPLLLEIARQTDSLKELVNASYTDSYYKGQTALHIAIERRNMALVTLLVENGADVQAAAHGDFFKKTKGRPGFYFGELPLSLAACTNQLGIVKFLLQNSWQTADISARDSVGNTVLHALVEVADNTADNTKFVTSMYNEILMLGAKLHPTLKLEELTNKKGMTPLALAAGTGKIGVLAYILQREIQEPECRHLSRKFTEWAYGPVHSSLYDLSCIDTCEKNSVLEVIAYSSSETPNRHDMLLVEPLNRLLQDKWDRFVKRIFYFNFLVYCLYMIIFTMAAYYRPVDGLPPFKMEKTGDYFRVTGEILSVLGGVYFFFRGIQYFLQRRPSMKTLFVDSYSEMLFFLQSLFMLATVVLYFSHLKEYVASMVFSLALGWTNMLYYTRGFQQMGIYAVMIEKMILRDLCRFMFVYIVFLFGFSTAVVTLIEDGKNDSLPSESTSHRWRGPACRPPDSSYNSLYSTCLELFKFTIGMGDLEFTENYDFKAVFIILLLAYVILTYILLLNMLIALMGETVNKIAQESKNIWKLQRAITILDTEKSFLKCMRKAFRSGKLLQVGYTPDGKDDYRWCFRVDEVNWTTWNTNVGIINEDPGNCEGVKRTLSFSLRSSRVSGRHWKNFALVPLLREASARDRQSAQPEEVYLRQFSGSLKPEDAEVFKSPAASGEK

As for `FC(F)(F)c1ccc(Nc2ncnc3[nH]c(Nc4c(Cl)cccc4Cl)nc23)cc1` [Example 1, N^8-(2,6-Dichloro-phenyl)-N^6-(4-trifluoromethyl-phenyl)-9H-purine-6,8-diamine], the results for the IC50 in assay [1] and in assay [2] were 17 nM and 4.9 nM, respectively.

Take `FC(F)(F)c1ccc(Nc2ncnc3[nH]c(Nc4c(Cl)cccc4Cl)nc23)cn1` [Example 2, N^8-(2,6-Dichloro-phenyl)-N^6-(6-trifluoromethyl-pyridin-3-yl)-9H-purine-6,8-diamine]: the half-inhibitory concentration (IC50) in assay [2] was 19 nM.

For `CC(C)(C)c1ccc(Nc2ncnc3[nH]c(Nc4c(Cl)cccc4Cl)nc23)cc1` [Example 3, N^6-(4-tert-Butyl-phenyl)-N^8-(2,6-dichloro-phenyl)-9H-purine-6,8-diamine], the concentration for half-maximal inhibition (IC50) in assay [1] worked out at 2.3 nM; in assay [2] it was 0.15 nM.

Take `Clc1cccc(Cl)c1Nc1nc2c(Nc3ccccc3)ncnc2[nH]1` [Example 4, N^8-(2,6-Dichloro-phenyl)-N^6-phenyl-9H-purine-6,8-diamine]: the IC50 in assay [1] is 3390 nM; in assay [2], 1750 nM.

`CS(=O)(=O)c1ccc(Nc2ncnc3[nH]c(Nc4c(Cl)cccc4Cl)nc23)cc1` [Example 5, N^8-(2,6-Dichloro-phenyl)-N^6-(4-methanesulfonyl-phenyl)-9H-purine-6,8-diamine]: the results for the IC50 in assay [1] and in assay [2] were 170 nM and 18 nM, respectively.

For the compound `Cc1nc(Nc2ccc(C(F)(F)F)cc2)c2nc(Nc3c(Cl)cccc3Cl)[nH]c2n1` [Example 6, N^8-(2,6-Dichloro-phenyl)-2-methyl-N^6-(4-trifluoromethyl-phenyl)-9H-purine-6,8-diamine], the figures for the IC50 in assay [1] and in assay [2] were 29 nM and 3 nM, respectively.

As for `FC(F)(F)c1ccc(Nc2ncnc3[nH]c(Nc4ccccc4Cl)nc23)cc1` [Example 7, N^8-(2-Chloro-phenyl)-N^6-(4-trifluoromethyl-phenyl)-9H-purine-6,8-diamine], the IC50 in assay [1] and in assay [2] was greater than 6670 nM in each case.

As for `FC(F)(F)c1ccc(Nc2ncnc3[nH]c(Nc4ccccc4C(F)(F)F)nc23)cc1` [Example 8, N^6-(4-Trifluoromethyl-phenyl)-N^8-(2-trifluoromethyl-phenyl)-9H-purine-6,8-diamine], the IC50 in assay [1] is 3070 nM; in assay [2], 1010 nM.

Consider `FC(F)(F)c1ccc(Nc2ncnc3[nH]c(Nc4ccccc4C(F)(F)F)nc23)cn1` [Example 9, N^8-(2-Trifluoromethyl-phenyl)-N^6-(6-trifluoromethyl-pyridin-3-yl)-9H-purine-6,8-diamine], for which the IC50 came to 2300 nM in assay [1] and 1050 nM in assay [2].

For `Cn1c(Nc2c(Cl)cccc2Cl)nc2c(Nc3ccc(C(F)(F)F)cc3)ncnc21` [Example 10, N^8-(2,6-Dichloro-phenyl)-9-methyl-N^6-(4-trifluoromethyl-phenyl)-9H-purine-6,8-diamine], the IC50 in assay [1] was 1460 nM; in assay [2], 1130 nM.
